Tested on: black cohosh plantlets
Assay: Rooting of black cohosh cultures and growth of the micropropagated plantlets in soil
Format: in vivo, Cimicifuga racemosa/Actaea racemose L.
Settings: rooting 4 weeks, 60% shade
Experimental: All cultures described herein were transferred onto fresh media every 4 weeks. When indicated as such, the cultures were maintained in a plant tissue culture grade growth chamber under a 16-hour photoperiod (e.g. 16 hours of light per a 24 hour period) with a photo flux density of 37.6±4.8 μmol s^−1m^−2 light per day provided by cool white fluorescent tubes at 23±0.1° C., unless otherwise noted. As employed herein, MS supplemented base medium is at a pH of between about 5.4 and 5.8, supplemented with about 0.7% agar and about 3% sucrose, optionally with one or more plant growth regulators as disclosed herein. The pH of the medium is adjusted with a base, such as 1N KOH, and/or an acid, such as 1N HCl, before the agar is added. The supplemented medium is sterilized by autoclaving at about 120° C. and about 106 kPa for about 20 minutes. A first half of the cultures from Example 1B were moved to fresh MS supplemented base medium containing IBA (1.0 mg/1) and kept in a growth chamber under 16 hours light conditions per day for 4 weeks for rooting of the plantlets. See also the bottom row of FIG. 1, which refers to rooting for 4 weeks. […] A second half of the cultures from Example 1B were moved to fresh MS supplemented base medium containing NAA (0.1 mg/1) and kept in a growth chamber under 16 hours light conditions per day for 4 weeks for rooting of the plantlets. […]

O=C(O)CCCc1c[nH]c2ccccc12 [IBA, indole-3-butyric acid]
plantlet growth in soil after rooting (shoots proliferated in BA+NAA (Example 1B)): grew vigorously with normal morphology
plantlet growth in soil after rooting (shoots proliferated in kinetin+NAA (Example 1C)): grew vigorously
